“And” between values parts separate entries of the source, which are not always exact repeats. Equal entries are not always repeated. {Dig} = digoxigenin coupled through a C6 amino linker; {Cy5} = Cy5 fluorescent dye label; d = 2'-deoxy (DNA); m = 2'-O-methyl; r = 2'-OH (RNA)

A short description of data set [1]: Excitation and emission spectra of Cy5, Dig-Cy5 and complex. In kind it is physicochemical. An excerpt: To evaluate whether digoxygenation of Cy5 alters its fluorescence features, we compared the excitation and emission spectra of Cy5 and compared it with the spectra of the newly generated Dig-Cy5 and with Dig-Cy5 within a complex with bispecific antibodies. […] We conclude that Dig-Cy5 and -complexes can be applied for antibody-mediated targeting and in vivo imaging.

Data set [2] deals with Eg5 mRNA in HeLa-S3 cells. The data set can be described thus: Eg5 bDNA assay of transfected siRNAs. It is filed as cell-based, human. The note with it: Lipofectamine 2000 transfection, 24 hours. The source says:
To evaluate whether additions or alterations of siRNAs by digoxygenin alters its biological activity, we performed in vitro assays in cell culture. For that, we chose to assess the activity of siRNA that inactivates the mRNA of Eg5. The direct effect of Eg5 siRNA activity is down-regulation of its cognate mRNA. This can be quantified by bDNA (branched DNA) assays, which detect the amount of specific mRNAs in cells (Burris et al., 1999, Molecular Endocrinology). To perform these assays, we seeded a defined number of the respective cell type into 96-well plates and allowed them to attach over night. The next day cells were transfected with desired amounts of a certain siRNA or treated with the agent whose effect on the mRNA-level should be analysed. After 24 hours the QuantiGene kit protocol was followed according to the instructions of the manufacturer (Affymetrix) in order to quantify the mRNA levels. Briefly, the cell lysates were transferred to a capture plate in the presence of a gene-specific probe set and then incubated at 53° C. over night. Wells were washed. They were then incubated at 53° C. sequentially with an Amplifier and an alkaline phosphatase-linked label probe with a wash between the incubations. After a final wash, the luminescent alkaline phosphatase substrate dioxitane was added and was incubated for 30 min at 53° C. The luminescence was detected using a InfiniteF200 luminescence reader (Tecan Austria, Gröding). The biological activity of siRNAs that target Eg5 can not only be determined by bDNA analyses, but also by the phenotype that is caused by Eg5 mRNA depletion in growing cells. Eg5 is a motor protein that belongs to the kinesin-like protein family. Eg5, also known as KSP (kinesin spindle protein), is essential for the formation of the bipolar mitotic spindle and is required for the proper separation of the spindle poles. Depletion of Eg5 leads to the formation of characteristic monoaster spindles and activates the spindle checkpoint. This causes a mitotic arrest that ultimately leads to apoptosis (Tao et. al., Molecular and cellular biology. 2007 January; 27(2):689-98) (Tao W. et. al., Cancer Cell. 2005; 8:49-59.) Because of that, inactivation of Eg5 by siRNA mediates in many cases a cytotoxic phenotype to cultured cells. Therefore, the biological activity of Eg5 siRNA can be analyzed by monitoring the number of living cells.
Table 7 summarizes the results of the bDNA and cytotox assays that we performed to compare the biological activities of transfected siRNAs with that of their transfected digoxygenated counterparts. For the bDNA assays, we seeded HeLa-S3 cells into 96-well plates and allowed them to attach over night. The next day cells were transfected with the indicated amounts of siRNA using the Lipofectamine™ 2000 transfection reagent according to the instructions of the manufacturer (Invitrogen). After 24 hours the QuantiGene kit protocol was followed according to the instructions of the manufacturer (Affymetrix) in order to quantify the mRNA levels of the Eg5 mRNA.

The subject of another data set is KPL-4 cells. The data set can be described thus: Cytotox assay (CellTiter-Glo) of transfected siRNAs. In kind it is cell-based, human. The note with it: Dharmafect transfection, 48 hours. The method, then: To measure the number of living cells the CellTiter-Glo Luminescent Cell Viability Assay (Promega Madison, Wis.) assay was applied according to the protocol supplied by the manufacturer. In this assay the cells are lysed and a luminescent signal proportional to the ATP amount is generated. The ATP amount is directly proportional to the number of living cells. The 96 well plates were then analyzed in a InfiniteF200 luminescence reader (Tecan Austria, Gröding).
For the cytotox assays, KPL-4 cells were seeded at a density of 7000 cells per well in 96 well plates. The cells were incubated for 24 hours at 37° C., 5% CO2 and 85% humidity in RPMI with 10% FCS and L-Glutamine. The next day cells were transfected with the indicated amounts of siRNA using the Dharmafect transfection reagent according to the instructions of the manufacturer (Dharmacon). After 48 hours the cells were treated with the CellTiter-Glo-assay reagent according to the manufacturers instructions.

For the next data set, the target named is Eg5-siRNA-DIG. The data set can be described thus: SPR (Biacore) binding to mono-digoxygenated siRNA. The note with it: 25° C. A general note: SPR reads the build-up and loss of mass on a sensor chip optically.
For a further data set, the target named is Eg5-siRNA-(2×)DIG. Description: SPR (Biacore) binding to bi-digoxygenated siRNA. Particulars: 25° C., read-out: KD, binding of siRNA-(2x)DIG.
Another data set has as its system DIG-Myoglobin. The data set can be described thus: SPR binding to mono-digoxygenated protein DIG-myoglobin. The method, then: (§1) For that, binding properties of the recombinant <Dig> derivatives were analyzed by surface plasmon resonance (SPR) technology using a Biacore T100 or Biacore 3000 instrument (GE Healthcare Bio-Sciences AB, Uppsala). This system is well established for the study of molecule interactions. It allows a continuous real-time monitoring of ligand/analyte bindings and thus the determination of association rate constants (ka), dissociation rate constants (kd), and equilibrium constants (KD) in various assay settings. SPR-technology is based on the measurement of the refractive index close to the surface of a gold coated biosensor chip. Changes in the refractive index indicate mass changes on the surface caused by the interaction of immobilized ligand with analyte injected in solution. If molecules bind to immobilized ligand on the surface the mass increases, in case of dissociation the mass decreases. To perform the binding studies capturing anti-human IgG antibody was immobilized on the surface of a CM5 biosensor chip using amine-coupling chemistry. Flow cells were activated with a 1:1 mixture of 0.1 M N-hydroxysuccinimide and 0.1 M 3-(N,N-dimethylamino)propyl-N-ethylcarbodiimide at a flow rate of 5 μl/min. […] A reference control flow cell was treated in the same way but with vehicle buffers only instead of the capturing antibody. Surfaces were blocked with an injection of 1 M ethanolamine/HCl pH 8.5. To compare the binding of the humanized protein variants with that of the murine <Dig> IgG from the original hybridoma 19-11, capturing anti-mouse IgG antibody was immobilized on the surface of a CM5 biosensor chip in the same fashion as described above for the anti-human IgG antibody. To evaluate the functionality of the recombinant <Dig> derivatives, binding of the recombinant hu<Dig> modules, incl. (i) humanized IgG, (ii) fusion proteins harboring hu<Dig> scFv or (iii) disulfide-stabilized scFvs was assayed with different digoxygenated antigens The resulting binding affinities were compared to the binding of the murine ‘wildtype’ DIG-IgG from which the recombinant humanized modules were derived.
Another SPR study was performed in which the binding affinity of <DIG>-hu2, IGF1R-DIG and <DIG> M-19-11 was compared in terms of binding to the mono-digoxygenated protein DIG-myoglobin.

A further data set deals with DIG-siRNA2349. Description: SPR binding to DIG-siRNA2349. The note with it: analyte DIG-siRNA2349; replicate lines; listed as <DIG>M-19-11. The method, then: as §1, with “derived. […]” for “derived.”
The mark [3] stands for this setting: analyte DIG-Myoglobin, replicate lines, listed as <DIG>M-19-11.

Description for Eg5-siRNA-(2×)DIG: (§2) For that, binding properties of the recombinant <Dig> derivatives were analyzed by surface plasmon resonance (SPR) technology using a Biacore T100 or Biacore 3000 instrument (GE Healthcare Bio-Sciences AB, Uppsala). […] To perform the binding studies capturing anti-human IgG antibody was immobilized on the surface of a CM5 biosensor chip using amine-coupling chemistry. Flow cells were activated with a 1:1 mixture of 0.1 M N-hydroxysuccinimide and 0.1 M 3-(N,N-dimethylamino)propyl-N-ethylcarbodiimide at a flow rate of 5 μl/min. […] A reference control flow cell was treated in the same way but with vehicle buffers only instead of the capturing antibody. Surfaces were blocked with an injection of 1 M ethanolamine/HCl pH 8.5. […]
(§3) Anti-mouse IgG antibody was immobilized on the surface of a CM5 biosensor chip in the same fashion as described above. […] The samples to be analyzed were diluted in HBS-P (10 mM HEPES, pH 7.4, 150 mM NaCl, 0.005% Surfactant P20) and injected at a flow rate of 5 μl/min. […] Signals were detected at a rate of one signal per second.
(§4) The samples to be analyzed were diluted in HBS-P and injected at a flow rate of 5 μl/min. […]
Description for Eg5-siRNA-DIG: as §2, §3, §4

With Cy5 [reference compound], in data set [1], the “Emission wavelength (max.)” value is “at 670 nm” and the Excitation wavelength was 575-605 nm.
As to “Dig-Eg5 siRNA: mono-digoxygenated Eg5 siRNA, Seq. ID NO. 25/32 (chain 1 CUGAAGACCUGAAGACAAUUU; chain 2 AUUGUCUUCAGGUCUUCAGUU; chain 1: 2'-O-methyl at CU, RNA at AG, 3' {Dig}, backbone not given here; chain 2: RNA, backbone not given here; further chemistry not fully specified)”, the IC50 (usually the concentration needed to halve the response being measured) is 0.035 nM in data set [2] and 4 nM in the data set with KPL-4 cells.
Taken in the same sequence, the figures for “Dig-Eg5-Cy5 siRNA: digoxygenated Cy5-labeled Eg5 siRNA, Seq. ID NO. 27/34 (chain 1 CUGAAGACCUGAAGACAAUUU; chain 2 AUUGUCUUCAGGUCUUCAGUU; chain 1: RNA, 5' {Cy5}, 3' {Dig}, backbone not given here; chain 2: RNA, backbone not given here)” were 0.013 nM and 215 nM.
In turn, “Dig-Luciferase siRNA: digoxygenated luciferase siRNA, Seq. ID NO. 23/30 (chain 1 CUUACGCUGAGUACUUCGATT; chain 2 UCGAAGUACUCAGCGUAAGTT; chain 1: DNA at T, 2'-O-methyl at CU, RNA at AG, 3' {Dig}, backbone not given here; chain 2: sugars from the 5' end rrrrrrmrrrmrrrrmrrrdd, backbone not given here; further chemistry not fully specified)” gave an IC50 in data set [2] above 100 nM.
Consider “Eg5 siRNA: siRNA targeting Eg5, Seq. ID NO. 24/31 (chain 1 CUGAAGACCUGAAGACAAUUU; chain 2 AUUGUCUUCAGGUCUUCAGUU; chain 1: sugars from the 5' end r18 m3, backbone not given here; chain 2: RNA, backbone not given here)”, for which the IC50 in data set [2] is 0.016 nM; in the data set with KPL-4 cells, 28 nM.
Take “Luciferase siRNA: control siRNA, Seq. ID NO. 22/29 (chain 1 CUUACGCUGAGUACUUCGATT; chain 2 UCGAAGUACUCAGCGUAAGTT; chain 1: DNA at T, 2'-O-methyl at CU, RNA at AG, backbone not given here; chain 2: sugars from the 5' end rrrrrrmrrrmrrrrmrrrdd, backbone not given here) [reference compound]”: the half-maximal inhibitory concentration (IC50) in data set [2] was above 100 nM.

B1: murine DIG-IgG 19-11: hybridoma clone 19-11 derived murine anti-digoxigenin IgG1 kappa; VL Seq. ID. NO. 1, VH Seq. ID. NO. 2 (antibody, listed as Mus musculus, V domains shown)
VH: MNFVLSLIFLALILKGVQCEVQLVESGGGLVKPGGSLKLSCAVSGFTFSDYAMSWIRQTPENRLEWVASINIGATYAYYPDSVKGRFTISRDNAKNTLFLQMSSLGSEDTAMYYCARPGSPYEYDKAYYSMAYWGPGTSVTVSS
VL: MSSAQFLGLLLLCFQGTRCDVQMTQSTSSLSASLGDRVTISCRASQDIKNYLNWYQQKPGGTVKLLIYYSSTLLSGVPSRFSGRGSGTDFSLTITNLEREDIATYFCQQSITLPPTFGGGTKLEIK
notes: hybridoma clone 19-11 derived murine anti-digoxigenin IgG1 kappa; ID; NO
With B1, the Kd – broadly, the concentration at which binding is half-saturated – on Eg5-siRNA-DIG is 0.269 nM; at Eg5-siRNA-(2×)DIG, 0.017 nM; on DIG-siRNA2349, 0.276 nM and 0.371 nM. Also, in the data set on DIG-Myoglobin (SPR), the “affinity to DIG-Myo compared with <DIG>-hu2 and disulfide-stabilized <DIG> scFv” value is on record as “about a hundred fold better”. In addition, the ka with DIG-Myoglobin (setting [3]) was 1.75e+06 M⁻¹ s⁻¹ and 2.28e+06 M⁻¹ s⁻¹; with DIG-siRNA2349, 3.27e+06 M⁻¹ s⁻¹ and 2.26e+06 M⁻¹ s⁻¹. Also, the kd was 0.000676 s⁻¹ and 0.000675 s⁻¹ on DIG-Myoglobin (setting [3]); 0.000903 s⁻¹ and 0.000838 s⁻¹ on DIG-siRNA2349.

Source of the values: US9050375B2, “Bi-specific digoxigenin binding antibodies” (priority 2009, dated 2015).
